# What was measured:
# [1] = biological target: T1, human MetAP2 enzyme (Homo sapiens, UniProt P50579); test: MetAP2 enzyme assay, enzyme complexed with manganese ions; settings: MetAP2 Mn pIC50, MetAP2 enzyme complexed with manganese ions; Met-AMC substrate at Km
# Protocol: DNA encoding the full-length sequence of human MetAP2 enzyme is amplified by PCR and cloned into a pFastBac expression vector (Invitrogen). Recombinant baculovirus incorporating the MetAP2 construct is generated by transposition using the Bac-to-Bac system (Invitrogen). The expression of recombinant protein is carried out by infection of Spodoptera frugiperda Sf9 cells (Invitrogen) in 5 L Wave Bioreactors (Wave Biotech). Recombinant protein is isolated from cellular extracts by binding to an SP Hitrap Fast Flow or SP Sepharose (Sigma) column, and the protein is eluted using a NaCl gradient. Partially purified extracts of MetAP2 are further purified by an AKTA FPLC over a Superdex-200 column (GE). The purity of MetAP2 protein is determined on denaturing SDS-PAGE gel.
# The results for each well are expressed as percent inhibition and calculated using the equation:
# [2] = biological target: T1, human MetAP2 enzyme; test: MetAP2 enzyme assay, enzyme complexed with cobalt ions; settings: MetAP2 Co pIC50, MetAP2 enzyme complexed with cobalt ions; Met-AMC substrate at Km
# T1 sequence (P50579 whole entry): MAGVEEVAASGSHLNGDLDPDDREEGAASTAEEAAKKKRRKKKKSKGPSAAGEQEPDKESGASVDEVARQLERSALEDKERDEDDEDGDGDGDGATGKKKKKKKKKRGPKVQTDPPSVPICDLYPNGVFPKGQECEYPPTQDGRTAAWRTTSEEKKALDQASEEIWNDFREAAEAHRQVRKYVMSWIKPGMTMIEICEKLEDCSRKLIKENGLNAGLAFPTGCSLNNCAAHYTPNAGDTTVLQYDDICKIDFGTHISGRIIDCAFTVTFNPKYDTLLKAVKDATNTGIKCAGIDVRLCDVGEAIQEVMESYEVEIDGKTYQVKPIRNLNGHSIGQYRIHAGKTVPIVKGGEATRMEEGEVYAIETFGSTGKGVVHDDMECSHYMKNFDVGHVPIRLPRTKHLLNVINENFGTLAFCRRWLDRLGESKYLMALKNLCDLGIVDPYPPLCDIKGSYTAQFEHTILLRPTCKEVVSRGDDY
Compound,IC50 [1],IC50 [2]
"NC(=O)c1cc(-c2cc(C(F)(F)F)cc3[nH]ncc23)ccc1F [Example 110, 2-fluoro-5-(6-(trifluoromethyl)-1H-indazol-4-yl)benzamide]",3.98 nM,63.1 nM
"CC(=O)Cn1nc(C)c(-c2cc(C(F)(F)F)cc3[nH]ncc23)c1C [Example 324, 1-(3,5-dimethyl-4-(6-(trifluoromethyl)-1H-indazol-4-yl)-1H-pyrazol-1-yl)propan-2-one]",31.6 nM,63.1 nM
"CN(C)CCn1c(=O)c(-c2cc(C(F)(F)F)cc3[nH]ncc23)cn(C)c1=O [Example 319, 3-(2-(dimethylamino)ethyl)-1-methyl-5-(6-(trifluoromethyl)-1H-indazol-4-yl)pyrimidine-2,4(1H,3H)-dione]",39.8 nM,1260 nM
"Cc1nn(CC(N)=O)c(C)c1-c1cc(C(F)(F)F)cc2[nH]ncc12 [Example 173, 2-(3,5-dimethyl-4-(6-(trifluoromethyl)-1H-indazol-4-yl)-1H-pyrazol-1-yl)acetamide]",15.8 nM,31.6 nM
"O=c1[nH]cc(-c2cc(C(F)(F)F)cc3[nH]ncc23)c(=O)[nH]1 [Example 54, 5-(6-(trifluoromethyl)-1H-indazol-4-yl)pyrimidine-2,4(1H,3H)-dione]",6.31 nM,398 nM
"O=C(NCCO)c1ccc(-c2cc(C(F)(F)F)cc3[nH]ncc23)cn1 [Example 270, N-(2-hydroxyethyl)-5-(6-(trifluoromethyl)-1H-indazol-4-yl)picolinamide]",3.16 nM,39.8 nM
"Cc1nn(CCC(N)=O)c(C)c1-c1cc(C(F)(F)F)cc2[nH]ncc12 [Example 172, 3-(3,5-dimethyl-4-(6-(trifluoromethyl)-1H-indazol-4-yl)-1H-pyrazol-1-yl)propanamide]",7.94 nM,50.1 nM
"CS(=O)(=O)c1cccc(-c2cc(C(F)(F)F)cc3[nH]ncc23)c1 [Example 103, 4-(3-(methylsulfonyl)phenyl)-6-(trifluoromethyl)-1H-indazole]",6.31 nM,50.1 nM
"FC(F)(F)c1cc(-c2ccnc3ccccc23)c2cn[nH]c2c1 [Example 112, 4-(6-(trifluoromethyl)-1H-indazol-4-yl)quinoline]",12.6 nM,50.1 nM
"FC(F)(F)c1cc(-c2cc[nH]n2)c2cn[nH]c2c1 [Example 13, 4-(1H-pyrazol-3-yl)-6-(trifluoromethyl)-1H-indazole]",10 nM,398 nM
"Cn1ncc(-c2cc(C(F)(F)F)cc3[nH]ncc23)c1CO [Example 250, (1-methyl-4-(6-(trifluoromethyl)-1H-indazol-4-yl)-1H-pyrazol-5-yl)methanol]",6.31 nM,79.4 nM

# Results, then the compound that gave them:
IC50 [1],IC50 [2],Compound
12.6 nM,39.8 nM,"NS(=O)(=O)c1ccc(-c2cc(C(F)(F)F)cc3[nH]ncc23)c(Cl)c1 [Example 351, 3-chloro-4-(6-(trifluoromethyl)-1H-indazol-4-yl)benzenesulfonamide]"
10 nM,31.6 nM,"Cc1ccc(C(=O)N2CC(O)C2)cc1-c1cc(C(F)(F)F)cc2[nH]ncc12 [Example 369, (3-hydroxyazetidin-1-yl)(4-methyl-3-(6-(trifluoromethyl)-1H-indazol-4-yl)phenyl)methanone]"
5.01 nM,39.8 nM,"COc1nc(C(N)=O)ccc1-c1cc(C(F)(F)F)cc2[nH]ncc12 [Example 391, 6-methoxy-5-(6-(trifluoromethyl)-1H-indazol-4-yl)picolinamide]"
7.94 nM,10 nM,"Cc1nc(N2C[C@H]3C[C@H]3C2C(N)=O)ncc1-c1cc(C(F)(F)F)cc2[nH]ncc12 (stereo partly drawn) [Example 415, (1R,5S)-3-(4-methyl-5-(6-(trifluoromethyl)-1H-indazol-4-yl)pyrimidin-2-yl)-3-azabicyclo[3.1.0]hexane-2-carboxamide]"
12.6 nM,31.6 nM,"Cc1ccc(C(=O)NCCO)cc1-c1cc(C(F)(F)F)cc2[nH]ncc12 [Example 368, N-(2-hydroxyethyl)-4-methyl-3-(6-(trifluoromethyl)-1H-indazol-4-yl)benzamide]"
